Measurements taken from ChEMBL document CHEMBL1201862, “PubChem BioAssay data set” (2004).
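Step 1: Grow cells in 96-well plates. Step 2: Expose to compound for 48 hours at 5 concentrations. Step 3: Interpolate endpoints linearly; if unreached, use highest concentration. At the GI50, growth is halved.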 Active and inactive are the calls of the source. Rule as the data show it: active = GI50 up to about 1.1 µM and inactive = higher.

Tests used:
Assay in all cases: inhibition of tumour cell growth, NCI panel, 48 h
A498 = test system: A498
COLO 205 = test system: COLO 205
EKVX = test system: EKVX
HCC 2998 = test system: HCC 2998
K562 = test system: K562
KM12 = test system: KM12
MCF7 = test system: MCF7
MOLT-4 = test system: MOLT-4
Malme-3M = test system: Malme-3M
NCI-H226 = test system: NCI-H226
NCI-H23 = test system: NCI-H23
NCI-H522 = test system: NCI-H522
OVCAR-4 = test system: OVCAR-4
OVCAR-5 = test system: OVCAR-5
RXF 393 = test system: RXF 393
SF-539 = test system: SF-539
SK-MEL-28 = test system: SK-MEL-28
SN12C = test system: SN12C
SNB-75 = test system: SNB-75
HL-60 = test system: HL-60

| SMILES | GI50 (A498) | GI50 (COLO 205) | GI50 (EKVX) | GI50 (HCC 2998) | GI50 (K562) | GI50 (KM12) | GI50 (MCF7) | GI50 (MOLT-4) | GI50 (Malme-3M) | GI50 (NCI-H226) | GI50 (NCI-H23) | GI50 (NCI-H522) | GI50 (OVCAR-4) | GI50 (OVCAR-5) | GI50 (RXF 393) | GI50 (SF-539) | GI50 (SK-MEL-28) | GI50 (SN12C) | GI50 (SNB-75) | GI50 (HL-60) |
| --- | --- | --- | --- | --- | --- | --- | --- | --- | --- | --- | --- | --- | --- | --- | --- | --- | --- | --- | --- | --- |
| C[C@H](CN1CC(=O)NC(=O)C1)N1CC(=O)NC(=O)C1 | > 64.6 µM (inactive) | 11.7 µM (inactive) | 57 µM (inactive) | 22.7 µM (inactive) | > 84.3 µM (inactive) | > 100 µM (inactive) | 44.2 µM (inactive) | 9.89 µM (inactive) | 42.9 µM (inactive) | 39 µM (inactive) | > 86.1 µM (inactive) | 20.8 µM (inactive) | > 100 µM (inactive) | > 100 µM (inactive) | > 100 µM (inactive) | > 100 µM (inactive) | > 100 µM (inactive) | > 85.3 µM (inactive) | > 100 µM (inactive) |  |
| CCOC(=O)N1CCN(C(=O)Nc2cccc3ccccc23)CC1 | > 10 µM (inactive) | > 10 µM (inactive) | > 10 µM (inactive) | > 10 µM (inactive) | > 10 µM (inactive) | > 10 µM (inactive) | > 10 µM (inactive) | > 10 µM (inactive) | > 10 µM (inactive) | > 10 µM (inactive) | > 10 µM (inactive) | > 10 µM (inactive) | > 10 µM (inactive) | > 10 µM (inactive) | > 10 µM (inactive) | > 10 µM (inactive) | > 10 µM (inactive) | > 10 µM (inactive) | > 10 µM (inactive) | > 10 µM (inactive) |
| OCC(CO)CC1COc2ccccc2O1 (stereo not drawn) | > 10 µM (inactive) | > 10 µM (inactive) | > 10 µM (inactive) | > 10 µM (inactive) | > 10 µM (inactive) | > 10 µM (inactive) | > 10 µM (inactive) | > 10 µM (inactive) | > 10 µM (inactive) | > 10 µM (inactive) | > 10 µM (inactive) | > 10 µM (inactive) | > 10 µM (inactive) | > 10 µM (inactive) | > 10 µM (inactive) | > 10 µM (inactive) | > 10 µM (inactive) | > 10 µM (inactive) | > 10 µM (inactive) | > 10 µM (inactive) |
| O=C1C2=C(C3=NCCc4c[nH]c1c43)C1(C=C(Br)C(O)C(Br)=C1)CCN2 (stereo not drawn) | 9.95 µM (inactive) | 0.115 µM (active) | 1.07 µM (active) | 1.18 µM (inactive) | 2.3 µM (inactive) | 1.82 µM (inactive) | 0.433 µM (active) | 0.721 µM (active) |  | 3.4 µM (inactive) | 0.792 µM (active) | 0.284 µM (active) | 1.47 µM (inactive) | 2.65 µM (inactive) | 2.56 µM (inactive) | 2.05 µM (inactive) | 7.69 µM (inactive) | 1.29 µM (inactive) | 10 µM (inactive) | 0.558 µM (active) |
| CC(C)C1OC(=O)/C=C/C=C/C=C/C=C/C=C/CC(O)C(C)C(O)CC(O)CC(O)CC(O)CC(O)CC(O)CC(O)/C=C/C1C (stereo not drawn) | > 100 µM (inactive) |  | > 100 µM (inactive) | > 100 µM (inactive) | > 100 µM (inactive) | > 100 µM (inactive) | > 100 µM (inactive) | > 100 µM (inactive) | 70.5 µM (inactive) |  | > 100 µM (inactive) | > 100 µM (inactive) | > 100 µM (inactive) | > 100 µM (inactive) |  | > 100 µM (inactive) | > 100 µM (inactive) |  | > 100 µM (inactive) | > 100 µM (inactive) |
| CNC(=O)SCC(NC(=O)CCC(N)C(=O)O)C(=O)NCC(=O)O (stereo not drawn) | > 100 µM (inactive) | 51.2 µM (inactive) | 75 µM (inactive) | > 100 µM (inactive) | 34.8 µM (inactive) | > 100 µM (inactive) | > 100 µM (inactive) | 60.8 µM (inactive) | > 65.5 µM (inactive) | > 100 µM (inactive) | > 100 µM (inactive) | > 86.5 µM (inactive) | > 100 µM (inactive) | > 100 µM (inactive) | > 100 µM (inactive) | > 96.4 µM (inactive) | > 100 µM (inactive) | > 89.7 µM (inactive) | > 100 µM (inactive) | > 31.6 µM (inactive) |
| CC(C)=CCc1c(C)cc2cc3c(c(O)c2c1O)C(=O)C=C(O)C3(CC=C(C)C)C/C=C(\C)CO (stereo not drawn) | 8.81 µM (inactive) | 40.5 µM (inactive) | 35.7 µM (inactive) | 45.2 µM (inactive) | 23.3 µM (inactive) | 41.9 µM (inactive) | 42.7 µM (inactive) | 23.2 µM (inactive) | 32.3 µM (inactive) | 34.2 µM (inactive) | 37.4 µM (inactive) | 27.9 µM (inactive) | 37 µM (inactive) | 48.2 µM (inactive) | 29 µM (inactive) | 39.1 µM (inactive) | 46.2 µM (inactive) | 31.1 µM (inactive) | 48.3 µM (inactive) | 19.4 µM (inactive) |
| CCOC(=O)C1(C(=O)OCC)CSC1 | 42 µM (inactive) | > 100 µM (inactive) |  | 0.192 µM (active) | > 100 µM (inactive) | > 100 µM (inactive) | > 100 µM (inactive) | > 100 µM (inactive) |  | > 100 µM (inactive) | > 100 µM (inactive) | > 100 µM (inactive) | > 100 µM (inactive) |  | > 100 µM (inactive) |  | > 100 µM (inactive) | > 100 µM (inactive) | > 100 µM (inactive) |  |
| N#Cc1c(NC(=S)Nc2ccc(Cl)cc2)sc2c1CCCC2 | > 100 µM (inactive) | > 100 µM (inactive) | 3.83 µM (inactive) | 64.1 µM (inactive) | 29.4 µM (inactive) | > 100 µM (inactive) | > 100 µM (inactive) | 16.6 µM (inactive) | 41.2 µM (inactive) | > 100 µM (inactive) | > 100 µM (inactive) | 25.8 µM (inactive) | 5.16 µM (inactive) | > 100 µM (inactive) | > 100 µM (inactive) |  | > 100 µM (inactive) | 3.37 µM (inactive) | > 100 µM (inactive) | 34.8 µM (inactive) |
| CC(=O)OC/C=C\Cn1nc(Br)c(=O)[nH]c1=O | 19.9 µM (inactive) | 13.5 µM (inactive) | 17.4 µM (inactive) | 15.7 µM (inactive) | 9.33 µM (inactive) | 15.5 µM (inactive) | 11.5 µM (inactive) |  | 14.3 µM (inactive) | 12.9 µM (inactive) | 15.1 µM (inactive) | 2.81 µM (inactive) |  | 17.9 µM (inactive) | 10.6 µM (inactive) | 11.2 µM (inactive) | 16.4 µM (inactive) | 23.2 µM (inactive) | 15.1 µM (inactive) | 4.69 µM (inactive) |
| FC(F)(F)C1=NC(=NNc2nnc(-c3ccccc3)c(-c3ccccc3)n2)N=C(C(F)(F)F)C1 | 11.6 µM (inactive) | 6.08 µM (inactive) | 10.2 µM (inactive) | 9.12 µM (inactive) | 4.11 µM (inactive) | 33.2 µM (inactive) | 13.5 µM (inactive) | 5.51 µM (inactive) | > 100 µM (inactive) | 29.4 µM (inactive) | 19.5 µM (inactive) | 9.51 µM (inactive) | 13.1 µM (inactive) | 30.2 µM (inactive) | 7.57 µM (inactive) | 32.9 µM (inactive) | 35.8 µM (inactive) | > 72.9 µM (inactive) | 25.7 µM (inactive) | 5.22 µM (inactive) |
| ICC1CCCO1 (stereo not drawn) | > 100 µM (inactive) | > 100 µM (inactive) | > 100 µM (inactive) | > 100 µM (inactive) |  | > 100 µM (inactive) |  | > 100 µM (inactive) | > 100 µM (inactive) | > 100 µM (inactive) | > 100 µM (inactive) |  | > 100 µM (inactive) | > 100 µM (inactive) | > 100 µM (inactive) | > 100 µM (inactive) | > 100 µM (inactive) | > 100 µM (inactive) | > 100 µM (inactive) | > 100 µM (inactive) |
| NC(=O)Nc1ccc(C(=O)NCCCNC(=O)c2ccc(NC(N)=O)cc2)cc1 | > 100 µM (inactive) | > 100 µM (inactive) | > 100 µM (inactive) | > 100 µM (inactive) | > 100 µM (inactive) | > 100 µM (inactive) | > 100 µM (inactive) | > 100 µM (inactive) | > 100 µM (inactive) | > 100 µM (inactive) | > 100 µM (inactive) | > 100 µM (inactive) | > 100 µM (inactive) | > 100 µM (inactive) | > 100 µM (inactive) | > 100 µM (inactive) | > 100 µM (inactive) |  | > 100 µM (inactive) | > 100 µM (inactive) |
| CC(=O)OC1CCn2c1nc1cc([N+](=O)[O-])c(C)cc12 (stereo not drawn) | > 100 µM (inactive) | > 100 µM (inactive) | > 100 µM (inactive) | > 100 µM (inactive) | > 100 µM (inactive) | > 100 µM (inactive) | > 100 µM (inactive) | > 100 µM (inactive) | > 100 µM (inactive) | > 100 µM (inactive) | > 100 µM (inactive) | > 100 µM (inactive) | > 100 µM (inactive) |  | > 100 µM (inactive) | > 100 µM (inactive) | > 100 µM (inactive) | > 100 µM (inactive) | > 100 µM (inactive) | > 100 µM (inactive) |
| O=C1C=C(N2CC2)C(=O)C=C1N1CC1 | 0.0318 µM (active) | 0.0984 µM (active) |  | 0.307 µM (active) |  | 0.824 µM (active) |  | 0.0344 µM (active) | 0.107 µM (active) | 0.418 µM (active) | 0.0904 µM (active) | 0.0652 µM (active) | 0.216 µM (active) | 0.646 µM (active) | 0.0634 µM (active) | 0.0931 µM (active) | 0.29 µM (active) | 0.122 µM (active) | 0.385 µM (active) | 0.0265 µM (active) |
